From US8354400B2, “Benzoxazole compounds and methods of use” (Eisai R&D Co., Ltd., priority 2008, dated 2013)
Entries after “also recorded” stand apart in the source; their conditions may differ.

What was measured:
Format in all cases: in vivo
[1] = system: collagen induced arthritis in male DBA/1J mice; assay: Type II collagen induced arthritis model; details: 5 days per week from day 9
Protocol: The type II collagen induced arthritis model was used for the purpose of in vivo evaluation of Compound 2 for the treatment of arthritis. In this model, arthritis was induced in male DBA/1J (Jackson Labs) mice using complete Freund's adjuvant. A first priming/immunization dose of 300 μg of bovine type II collagen emulsified in an equal volume of complete Freund's adjuvant is injected subcutaneously (s.c.) at least 5 mm from the base of the tail.
Starting on day 9 after immunization and each day for 5 days per week thereafter, each mouse was dosed orally with 6 mg/kg, 20 mg/kg, or 60 mg/kg of Compound 2 or placebo 5 days per week.
A second immunization dose was administered 21 days after the first immunization by s.c. injection above the first immunization site of 200 μg of bovine type II collagen emulsified in an equal volume of incomplete Freund's adjuvant. To further promote arthritis progression, animals receive an intraperitoneal injection of lipopolysaccharide (LPS) (1 μg/mouse in PBS) three days after the second immunization.
At 21, 25, 28, and 31 days after the first immunization dose, the animals were examined for evidence of paw swelling and assigned an arthritis score at each time point.

[2] = system: MRL/MpJ-faslpr/J mice (MRL/lpr); assay: MRL/MpJ-faslpr/J spontaneous lupus model, Experiment 1
Protocol: In this experiment, MRL/MpJ-faslpr/J mice (“MRL/lpr”) obtained from Jackson Laboratories were dosed orally with Compound 23 at 20 or 60 mg/kg in water. MRL/lpr mice have a defect in lymphocyte death and spontaneously develop autoantibodies including the anti-nuclear antibodies found in human systemic lupus erythematosus (SLE). Dosing was performed daily five days a week beginning at 5 weeks of age. Blood and urine samples were taken prior to dosing on day one and every three to four weeks thereafter. An ELISA assay was used to measure serum anti-dsDNA before and after 7 weeks of dosing. The assay was conducted using a Mouse Anti-dsDNA Total Ig Qualitative ELISA kit (Alpha Diagnostic International, San Antonio. TX).
Anti-nuclear antibodies (“ANA”) in this experiment were also examined by exposing fixed […] cells, obtained as fixed samples on slides from Antibodies Inc., to diluted serum from the mice dosed with Compound 23 at 20 or 60 mg/kg, as described above, and staining for mouse immunoglobulin using the kit reagents supplied by Antibodies Inc. according to the kit instructions. Intensity of fluorescent staining was then read by microscope, and scores were assigned values between − and +++. Sample identifications were blinded for data collection.

MRL/lpr mice = assay: MRL/lpr spontaneous lupus model, Experiment 2; details: 12 weeks, high dose (60 mg/kg p.o.)
Protocol: In this SLE experiment, dosing, groups were as described in Table 4 below. Two dose levels of Compound 23 were compared to HCQ and cyclophosphamide (Cytoxan®). HCQ and cyclophosphamide are currently used in the treatment of cutaneous and systemic lupus, respectively. […] Sera were assayed at a 1:600 dilution in PBS. (Mouse Anti-dsDNA Total Ig Qualitative ELISA kits, Alpha Diagnostic International). Dosing was conducted by either oral (p.o.) or intraperitoneal (i.p.) administration.

[3] = system: MOGp35-55-induced EAE in C57BL/6J mice; assay: Experimental autoimmune encephalitis (EAE) multiple sclerosis model
Protocol: Experimental autoimmune encephalitis (EAE) is an induced autoimmunity in mice that mimics human multiple sclerosis, including autoantibody and cellular responses targeted against central nervous system antigens. To induce EAE, groups of 8 male C57BL/6J mice (Jackson Laboratories) were immunized subcutaneously on day 0 with the synthetic peptide MOGp35-55 (Becher et al. J. Clin. Invest. 112:1186-1191 (2003)), with amino acid sequence […] (SEQ ID NO:4) at a dose of 200 μg/mouse in complete Freund's adjuvant (CFA). At the same time the animals received pertussis toxin, i.p. at 30 ng/mouse. On day 2 the pertussis injection was repeated. On day 7 the mice were boosted with MOGp35-55, 200 μg/mouse in incomplete Freund's. Beginning on day 9 the mice were dosed daily by oral gavage with Compound 23 in water at 20 mg/kg or 60 mg/kg. Symptoms were scored by observing degree and location of paralysis of the tail and limbs, the average score for each group of 8 mice is shown.

SMILES	paw swelling (arthritis score) ([1]; 60 mg/kg oral)	paw swelling (arthritis score) ([1]; 6 and 20 mg/kg oral)	serum anti-dsDNA, mean OD450 versus vehicle ([2]; MRL/lpr mice, 10 weeks of dosing)	serum anti-dsDNA versus vehicle ([2]; MRL/lpr mice, 12 weeks and beyond)	dosage-related toxicity (general appearance, body weight) ([2]; MRL/lpr mice, 20 or 60 mg/kg oral)	serum anti-dsDNA, mean OD450 versus vehicle ([2]; MRL/lpr mice, 20 or 60 mg/kg oral, 7 weeks of dosing)	anti-nuclear antibody (ANA) development ([2]; MRL/lpr mice, 20 or 60 mg/kg oral, 4, 10, 12 weeks of dosing)	anti-dsDNA in the MRL/lpr model of SLE (summary) ([2]; daily oral dosing with 60 and 20 mg/kg)	difference in mean dsDNA level between vehicle and compound (MRL/lpr mice)	MOG-induced EAE symptom score compared to control mice ([3]; 20 mg/kg oral gavage daily from day 9)	MOG-induced EAE symptom score ([3]; 60 mg/kg oral gavage daily from day 9)
CN(C)CCCOc1ccc(-c2nc3ccc(OCCCN(C)C)cc3o2)cc1 [Compound 2]	not clear	Suppression of paw swelling									
c1cc(-c2nc3ccc(OCCCN4CCCC4)cc3o2)ccc1OCCCN1CCCC1 [Compound 23]			statistical difference was still observed	more similar to vehicle-treated animals	No evidence of dosage-related toxicity	statistically significant suppression	dose-dependent suppression of ANA development; also recorded: dose-dependent inhibition	suppression of anti-dsDNA	statistically significant difference	suppressed significantly	suppressed further
